For assay [1], the target named is human full-length autophosphorylated recombinant HPK1 (Homo sapiens (Human), UniProt Q92918). The assay is described as follows: HPK1 biochemical enzyme assay (chelation-enhanced fluorescence, CHEF). The note with it: 0.5 nM HPK1, 45 μM ATP, Morrison fit. The method, boiled down: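 Autophosphorylated full-length human HPK1 from Sf21 cells, His-tag removed by TEV, residual N-terminal Gly-Ser. Activity measured with a C-Sox fluorescent peptide substrate (CHEF); initial velocities followed at λex 360/λem 500 nm, 30 °C for 15 min.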
Sequence of human full-length autophosphorylated recombinant HPK1 (Q92918 other isoform, or with tags, fused parts or gaps): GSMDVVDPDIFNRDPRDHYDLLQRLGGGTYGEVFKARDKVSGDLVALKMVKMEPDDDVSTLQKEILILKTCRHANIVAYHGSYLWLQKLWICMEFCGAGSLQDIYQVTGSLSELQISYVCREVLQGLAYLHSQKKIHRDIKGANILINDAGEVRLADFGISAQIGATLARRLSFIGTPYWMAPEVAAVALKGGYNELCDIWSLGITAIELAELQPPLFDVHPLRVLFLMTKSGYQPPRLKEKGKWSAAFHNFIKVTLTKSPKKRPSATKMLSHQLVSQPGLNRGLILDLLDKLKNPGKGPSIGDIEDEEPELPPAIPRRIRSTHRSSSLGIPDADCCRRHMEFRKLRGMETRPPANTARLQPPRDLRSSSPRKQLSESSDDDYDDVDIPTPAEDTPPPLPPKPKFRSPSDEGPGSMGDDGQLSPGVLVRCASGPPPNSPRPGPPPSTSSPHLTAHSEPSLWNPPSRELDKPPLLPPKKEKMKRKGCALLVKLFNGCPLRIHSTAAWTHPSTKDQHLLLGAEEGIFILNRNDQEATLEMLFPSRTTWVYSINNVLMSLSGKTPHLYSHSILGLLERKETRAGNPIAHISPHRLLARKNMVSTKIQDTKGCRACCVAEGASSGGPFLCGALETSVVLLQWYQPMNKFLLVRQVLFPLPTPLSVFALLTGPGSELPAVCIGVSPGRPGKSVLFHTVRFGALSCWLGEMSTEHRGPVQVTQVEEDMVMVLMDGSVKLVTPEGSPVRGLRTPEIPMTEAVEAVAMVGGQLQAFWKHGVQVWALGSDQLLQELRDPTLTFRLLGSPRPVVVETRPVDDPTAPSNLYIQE

The subject of assay [2] is Phospho-SLP-76 (Ser376) in Jurkat cells. The assay is described as follows: Phospho-SLP-76 (Ser376) HTRF assay in anti-CD3 stimulated Jurkat cells. It counts as cell-based. To be noted: Homo sapiens, Jurkat, 30 min pre-treatment, anti-CD3 stimulation 15 min, read-out: pSLP76 IC50. As to the method: Cell Based Assays Phospho-SLP-76 (Ser376) Homogeneous Time Resolved Fluorescence (HTRF) Assay
Jurkat cells were seeded at 90,000 cells/well in 90 uL of RPMI1640 growth medium containing 10% FBS and incubated at 37° C. with 5% CO2 overnight. The following day, compounds were serially diluted from a 10 mM top dose for an 11-point 3-fold dilution curve in DMSO. Compounds were intermediately diluted 1:100 into growth media prior to diluting 1:10 on cells for final concentration 10 μM to 0.1 nM in 0.1% DMSO. After 30 min pre-treatment with compounds, the cells were stimulated using 200 μg/mL of F(ab)2 complexed anti-CD3 (clone UCTH1) for 15 min at 37° C. with 5% CO2. Stimulation was stopped with ice cold PBS and cells were harvested by centrifugation before lysis in Cisbio lysis buffer (Cisbio, Bedford, Mass.). Lysates were transferred to white, low-volume plates containing anti-phospho-SLP-76-Cryptate plus anti-phospho-SLP-76-d2 HTRF antibodies and incubated overnight at room temperature protected from light according to the manufacturer's protocol (Cisbio, Bedford, Mass.). HTRF was measured on a Perkin Elmer Envision and IC50 values were calculated by concentration-response curve fitting utilizing four-parameter nonlinear regression analyses.

Structures are written as SMILES.

A word on the Ki: it is a dissociation constant, usually derived from enzyme kinetics or from competition with a known ligand. The term IC50 denotes the concentration needed to halve the response being measured.

For `CCCn1c(C)nnc1-c1cccc(N2Cc3c(cc(N(C)C(C)C)nc3[C@H](C)N)C2=O)n1` (single isomer, unassigned) [Example 149, 4-[(1ξ)-1-aminoethyl]-6-[methyl (propan-2-yl)amino]-2-[6-(5-methyl-4-propyl-4H-1,2,4-triazol-3-yl)pyridin-2-yl]-2,3-dihydro-1H-pyrrolo[3,4-c]pyridin-1-one], the Ki in assay [1] stood at 0.6 nM. Also, in assay [2], the half-maximal inhibitory concentration (IC50) stood at 171 nM.

Consider `CCn1cnnc1-c1cccc(N2Cc3c(cc(N4CCC[C@H]4C)nc3[C@H](C)N)C2=O)n1` (single isomer, unassigned) [Example 150], for which the inhibition constant (Ki) in assay [1] came out at 0.11 nM. Further, in assay [2], the IC50 was 59 nM.

For `CCn1cnnc1-c1cccc(N2Cc3c(cc(N4CCC[C@H]4C)nc3[C@@H](C)N)C2=O)n1` (single isomer, unassigned) [Example 151], the Ki in assay [1] worked out at 0.12 nM. Besides, the concentration for half-maximal inhibition (IC50) in assay [2] was found to be 33 nM.

With `CCn1cnnc1-c1cccc(N2Cc3c(cc(N(C)C)nc3[C@H](C)N)C2=O)n1` (single isomer, unassigned) [Example 152, 4-[(1ξ)-1-aminoethyl]-6-(dimethyl-amino)-2-[6-(4-ethyl-4H-1,2,4-triazol-3-yl)pyridin-2-yl]-2,3-dihydro-1H-pyrrolo[3,4-c]pyridin-1-one], the Ki in assay [1] is 1.53 nM. For the same compound, the IC50 in assay [2] was found to be 191 nM.

In the case of `CCn1c(C)nnc1-c1cccc(N2Cc3c(cc(N4CCC[C@H]4C)nc3[C@@H](C)N)C2=O)n1` (single isomer, unassigned) [Example 154], the Ki in assay [1] came out at 0.25 nM. Also, the IC50 in assay [2] came out at 120 nM.

For `CCn1c(C)nnc1-c1cccc(N2Cc3c(cc(N4CCC[C@H]4C)nc3[C@H](C)N)C2=O)n1` (single isomer, unassigned) [Example 155], in assay [1], the inhibition constant (Ki) was 0.24 nM. The IC50 in assay [2] was determined as 113 nM.

Turning to `C[C@@H]1CCCN1c1cc2c(c(C(C)(C)N)n1)CN(c1cccc(-c3nnc4n3[C@@H](C)CC4)n1)C2=O` [Example 17, 4-(2-aminopropan-2-yl)-2-{6-[(5S)-5-methyl-6,7-dihydro-5H-pyrrolo[2,1-c][1,2,4]triazol-3-yl]pyridin-2-yl}-6-[(2R)-2-methylpyrroli-din-1-yl]-2,3-dihydro-1H-pyrrolo[3,4-c]pyridin-1-one], the Ki in assay [1] is less than 0.05 nM. In assay [2], the 50% inhibitory concentration (IC50) turned out to be 23 nM.

Take `CC[C@@H](N)c1nc(N(C)C(C)C)cc2c1CN(c1cccc(-c3nnc4n3[C@@H](CO)CC4)n1)C2=O` [Example 20, 4-[(1R)-1-aminopropyl]-2-{6-[(5R)-5-(hydroxy-methyl)-6,7-dihydro-5H-pyrrolo[2,1-c][1,2,4]triazol-3-yl]pyridin-2-yl}-6-[methyl(propan-2-yl)amino]-2,3-dihydro-1H-pyrrolo[3,4-c]pyridin-1-one]: the Ki in assay [1] was less than 0.05 nM. Further, the 50% inhibitory concentration (IC50) in assay [2] was 23 nM.

Regarding `CC[C@@H](N)c1nc(N(C)C)cc2c1CN(c1cccc(-c3nnc4n3[C@@H](C)CC4)n1)C2=O` [Example 28, 4-[(1R)-1-aminopropyl]-6-(dimethyl-amino)-2-{6-[(5S)-5-methyl-6,7-dihydro-5H-pyrrolo[2,1-c][1,2,4]triazol-3-yl]pyridin-2-yl}-2,3-dihydro-1H-pyrrolo[3,4-c]pyridin-1-one], in assay [1], the inhibition constant (Ki) was less than 0.045 nM. Moreover, the 50% inhibitory concentration (IC50) in assay [2] was 64 nM.

As to `CC(C)N(C)c1cc2c(c([C@@H](C)N)n1)CN(c1cccc(-c3nnc4n3[C@@H](CF)CC4)n1)C2=O` [Example 29, 4-[(1R)-1-aminoethyl]-2-{6-[(5R)-5-(fluoromethyl)-6,7-dihydro-5H-pyrrolo[2,1-c][1,2,4]triazol-3-yl]pyridin-2-yl}-6-[methyl(propan-2-yl)amino]-2,3-dihydro-1H-pyrrolo[3,4-c]pyridin-1-one], the Ki in assay [1] was found to be 0.2 nM. Further, the IC50 in assay [2] worked out at 72 nM.

In the case of `C[C@@H]1CCCN1c1cc2c(c([C@@H](C)N)n1)CN(c1cccc(-c3nnc4n3[C@@H](CO)CC4)n1)C2=O` [Example 30, 4-[(1R)-1-aminoethyl]-2-{6-[(5R)-5-(hydroxy-methyl)-6,7-dihydro-5H-pyrrolo[2,1-c][1,2,4]triazol-3-yl]pyridin-2-yl}-6-[(2R)-2-methylpyrroli-din-1-yl]-2,3-dihydro-1H-pyrrolo[3,4-c]pyridin-1-one], in assay [1], the Ki was less than 0.05 nM. Moreover, in assay [2], the half-inhibitory concentration (IC50) is 62 nM.

On to `CC[C@@H](N)c1nc(N2CCC[C@H]2C)cc2c1CN(c1cccc(-c3nnc4n3[C@@H](CO)CC4)n1)C2=O` [Example 31, 4-[(1R)-1-aminopropyl]-2-{6-[(5R)-5-(hydroxy-methyl)-6,7-dihydro-5H-pyrrolo[2,1-c][1,2,4]triazol-3-yl]pyridin-2-yl}-6-[(2R)-2-methylpyrroli-din-1-yl]-2,3-dihydro-1H-pyrrolo[3,4-c]pyridin-1-one], for which the inhibition constant Ki in assay [1] was less than 0.05 nM. Further, the 50% inhibitory concentration (IC50) in assay [2] worked out at 42 nM.

As for `CC[C@@H](N)c1nc(N2CCC[C@H]2C)cc2c1CN(c1cccc(-c3nnc4n3[C@@H](CF)CC4)n1)C2=O` [Example 32, 4-[(1R)-1-aminopropyl]-2-{6-[(5R)-5-(fluoromethyl)-6,7-dihydro-5H-pyrrolo[2,1-c][1,2,4]triazol-3-yl]pyridin-2-yl}-6-[(2R)-2-methylpyrroli-din-1-yl]-2,3-dihydro-1H-pyrrolo[3,4-c]pyridin-1-one], the Ki in assay [1] is 0.06 nM. The half-maximal inhibitory concentration (IC50) in assay [2] was determined as 46 nM.

For the compound `CC[C@@H](N)c1nc(N(C)C)cc2c1CN(c1cccc(-c3nnc4n3[C@@H](CF)CC4)n1)C2=O` [Example 33, 4-[(1R)-1-aminopropyl]-6-(dimethyl-amino)-2-{6-[(5R)-5-(fluoromethyl)-6,7-dihydro-5H-pyrrolo [2,1-c][1,2,4]triazol-3-yl]pyridin-2-yl}-2,3-dihydro-1H-pyrrolo[3,4-c]pyridin-1-one], the inhibition constant Ki in assay [1] turned out to be 0.21 nM. Also, the concentration for half-maximal inhibition (IC50) in assay [2] came to 179 nM.

As to `CC[C@@H](N)c1nc(N(C)C(C)C)cc2c1CN(c1cccc(-c3nnc4n3[C@@H](CF)CC4)n1)C2=O` [Example 34, 4-[(1R)-1-aminopropyl]-2-{6-[(5R)-5-(fluoromethyl)-6,7-dihydro-5H-pyrrolo[2,1-c][1,2,4]triazol-3-yl]pyridin-2-yl}-6-[methyl (propan-2-yl)amino]-2,3-dihydro-1H-pyrrolo[3,4-c]pyridin-1-one], the Ki in assay [1] came out at 0.15 nM. In addition, the half-maximal inhibitory concentration (IC50) in assay [2] amounted to 26 nM.

As to `CCn1cnnc1-c1cccc(N2Cc3c(cc(C4(C)CC4)nc3[C@@H](C)NC)C2=O)n1` [Example 111, 2-[6-(4-ethyl-4H-1,2,4-triazol-3-yl)pyridin-2-yl]-4-[(1R)-1-(methylamino)ethyl]-6-(1-methylcyclo-propyl)-2,3-dihydro-1H-pyrrolo[3,4-c]pyridin-1-one], in assay [1], the inhibitory constant (Ki) amounted to 3.42 nM. The IC50 in assay [2] amounted to 470 nM.

With `CCn1cnnc1-c1cccc(N2Cc3c(cc(C4(C)CC4)nc3[C@H](C)NC)C2=O)n1` [Example 112, 2-[6-(4-ethyl-4H-1,2,4-triazol-3-yl)pyridin-2-yl]-4-[(1S)-1-(methylamino)ethyl]-6-(1-methylcyclo-propyl)-2,3-dihydro-1H-pyrrolo[3,4-c]pyridin-1-one], the inhibition constant (Ki) in assay [1] was determined as 0.77 nM. The IC50 in assay [2] amounted to 421 nM.

As for `CCCn1cnnc1-c1cccc(N2Cc3c(cc(C4(C)CC4)nc3[C@H](C)NC)C2=O)n1` [Example 113, 4-[(1S)-1-(methylamino)ethyl]-6-(1-methylcyclo-propyl)-2-[6-(4-propyl-4H-1,2,4-triazol-3-yl)pyridin-2-yl]-2,3-dihydro-1H-pyrrolo[3,4-c]pyridin-1-one], in assay [1], the inhibitory constant (Ki) turned out to be 0.67 nM. In addition, in assay [2], the half-maximal inhibitory concentration (IC50) was determined as 133 nM.

On to `CCn1cnnc1-c1cccc(N2Cc3c(cc(C4(C)CC4)nc3C(C)(C)N)C2=O)n1` [Example 114, 4-(2-aminopropan-2-yl)-2-[6-(4-ethyl-4H-1,2,4-triazol-3-yl)pyridin-2-yl]-6-(1-methylcyclo-propyl)-2,3-dihydro-1H-pyrrolo[3,4-c]pyridin-1-one], for which, in assay [1], the inhibition constant Ki came out at 0.41 nM. Further, the IC50 in assay [2] is 148 nM.

In the case of `CCn1cnnc1-c1cccc(N2Cc3c(cc(C4(C)CC4)nc3[C@@H](C)N)C2=O)n1` [Example 115, 4-[(1R)-1-aminoethyl]-2-[6-(4-ethyl-4H-1,2,4-triazol-3-yl)pyridin-2-yl]-6-(1-methylcyclo-propyl)-2,3-dihydro-1H-pyrrolo[3,4-c]pyridin-1-one], in assay [1], the Ki was found to be 0.56 nM. Further, in assay [2], the IC50 is 216 nM.

On to `CCn1cnnc1-c1cccc(N2Cc3c(cc(C4(C)CC4)nc3[C@H](C)N)C2=O)n1` [Example 116, 4-[(1S)-1-aminoethyl]-2-[6-(4-ethyl-4H-1,2,4-triazol-3-yl)pyridin-2-yl]-6-(1-methylcyclo-propyl)-2,3-dihydro-1H-pyrrolo[3,4-c]pyridin-1-one], for which, in assay [1], the inhibition constant Ki was 0.64 nM. For the same compound, the half-maximal inhibitory concentration (IC50) in assay [2] was 214 nM.

As to `CCN(C)c1cc2c(c(C(C)(C)N)n1)CN(c1cccc(-c3nnc(C)n3CC)n1)C2=O` [Example 123, 4-(2-aminopropan-2-yl)-6-[ethyl(methyl)amino]-2-[6-(4-ethyl-5-methyl-4H-1,2,4-triazol-3-yl)pyridin-2-yl]-2,3-dihydro-1H-pyrrolo[3,4-c]pyridin-1-one], the Ki in assay [1] came to 0.97 nM. Also, the IC50 in assay [2] was found to be 243 nM.
